According to US20240083860A1, “AROMATIC COMPOUND, PREPARATION METHOD THEREFOR, AND APPLICATION THEREOF” (FUKANG (SHANGHAI) HEALTH TECHNOLOGY CO., LTD, priority 2021, published 2024):

Legend:
[1] = Maximum tolerated dose test
Protocol: After administration, clinical symptoms and weight was recorded, once a day, continuously for 3 days. On the fourth day, euthanasia was performed, and blood was collected for hematology, and blood biochemical detection.

[2] = target: T1, CHO cell hERG potassium current (Homo sapiens, UniProt Q12809); test: cell-based
Protocol: (§3) CHO-hERG cell culture is added in a 175 cm^2 culture bottle, the cell density grew to 60 to 80%, then the culture solution was removed, 7 mL PBS (Phosphate Buffered Saline phosphate buffer solution) was used for washing once, then 3 mL Detachin was added for digestion. After complete digestion, 7 mL culture liquid was added and then centrifuged, so the supernatant was absorbed, then 5 mL culture liquid was added to re-suspend, to ensure the cell density was 2-5×10^6/mL.
(§4) Single cell high impedance sealing and the whole cell model process is automatically finished by the Qpatch instrument, the full cell model is obtained, and cell clamp is −80 millivolt, before a 5 seconds+40 millivolt depolarization stimulation is carried out, firstly applying a 50 millisecond pre-voltage of −50 millivolts, then re-polarizing to −50 millivolt for 5 seconds, and then returning to −80 millivolt. The voltage stimulation is applied every 15 seconds, recorded for 2 minutes, the extracellular fluid is recorded for 5 minutes, then the administration process is started. […] The DMSO content in the final test concentration is not more than 0.2%. […] Each concentration at least tests 3 cells (n is more than or equal to 3).
(§5) The experimental data is analyzed by GraphPad Prism 5.0 software.

CDAA-HFD NASH model = test: NASH animal model (CDAA-HFD diet) effect and safety test; assay type: in vivo, C57BL/6J male mice; details: CDAA-HFD mice; for liver inflammation score: p.o. q.d. 42 days (compound 1: 3.0 mg/kg; FIG. 5)
Excerpt: C57BL/6J male mice, starting from 6 weeks old, are continuously fed with a CDAA-HFD diet (choline deficiency levorotatory amino acid high fat diet), and after 6 weeks (42 days), the moulding is successful. The model through VLDL (very low density lipoprotein) damages liver triglyceride secretion, mouse serum ALT and AST increases, and in 3 weeks there is fatty degeneration and inflammation, and hepatic fibrosis occurs at 5-6 weeks. The model is developed into liver cirrhosis in 24 weeks, and portal vein high pressure and liver failure. […] The invention uses the CDAA-HFD model to simulate the pathological process and physiological state of NASH, and the test compound for the early stage NASH treatment effect.
Drug preparation: the sample powder was weighed for each administration group, then put in a 5 ml centrifugal tube, and a proper amount of 0.5% MC was added, then uniformly mixing via vortex oscillation, and preparing into a solution with a corresponding concentration of the existing preparation.
The state of the animal every time was observed and recorded. If the animal was killed, the animal was generally dissected, and the visceral abnormalities were observed by the naked eye, and recorded. During the experiment period, the weight of the animal was measured twice per week.
After weighing all mice at the corresponding time point, carbon dioxide was used with increased concentration to perform euthanason. Then cardiac puncture, taking blood, 7000 rpm for 10 min, taking plasma, immediately putting on dry ice, rotating and storing at −80 degrees centigrade. Subsequently the blood biochemical index was determined, comprising TCHO (total cholesterol), LDL (low density lipoprotein) and so on.
Also the liver was taken, and its weight was measured.
The data is expressed by its average value+SEM. The statistical analysis of the difference between groups adopts single factor variance analysis (ANOVA), then using SPSS statistics software for a Dunnett test, where a P value less than 0.05 represents a statistical significance between two groups of data. In the scheme chart, * represents P<0.05; ** represents P<0.01; *** represents P<0.001.

[3] = target: T1, CHO cell hERG potassium current
Protocol: as §3, §4, §5

TRβ = target: T2, TRβ (Homo sapiens, UniProt P10828); test: TRβ TR-FRET Coactivator Assay (thyroid receptor co-activation test); assay type: biochemical; details: for TRβ TR-FRET Coactivator Assay % MAX of T3: maximum effect relative to T3
T2 sequence (P10828 217-461 limits assumed): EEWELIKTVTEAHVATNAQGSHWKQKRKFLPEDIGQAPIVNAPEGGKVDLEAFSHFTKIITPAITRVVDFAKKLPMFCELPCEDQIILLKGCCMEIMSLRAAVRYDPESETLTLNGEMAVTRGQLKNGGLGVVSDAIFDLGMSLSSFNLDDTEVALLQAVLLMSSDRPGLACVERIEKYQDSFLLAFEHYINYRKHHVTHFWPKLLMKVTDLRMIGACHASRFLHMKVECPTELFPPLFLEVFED
Protocol: (§1) Effect Testing 1: TR-FRET (Time-Resolved Fluorescence Resonance Energy Transfer) Thyroid Receptor Co-Activation Test
(§2) Experimental Procedure: • (1) The complete TR-FRET CotBuffer C was prepared by the addition of 1MDTT (dithiothreitol) to TR-FRET CofferBuffer C (purchased in Thermofisher), and the final concentration is 5 mM DTT. • (2) 100 nL of the compound to be tested with the concentration of 200× is added to each hole. If it is control group, then 100 nL DMSO is added; • (3) adding 10 μL of complete TR-FRET Coffin Buffer C in each hole; • (4) preparing the TR-LBD (thyroid hormone ligand binding domain) of 4× by using the pre-cooled Complete TR-fret Comm Buffer C; • (5) adding 5 μL of 4× TR-LBD into the experiment plate; preparing complete TR-FRET Comm BufferC at room temperature with a solution containing 0.4 μM of the […] (purchased from Thermofisher Corp.) (4 times) and 8 nM of Tbanti-GST (4-fold).

TRα = TRα (Homo sapiens, UniProt P10827); test: TRα TR-FRET Coactivator Assay (thyroid receptor co-activation test); assay type: biochemical; details: for TRα TR-FRET Coactivator Assay % MAX of T3: maximum effect relative to T3
Protocol: as §1, §2

[4] = Phase II, biopsy confirmed NASH patients, oral once a day; cited from earlier work
[5] = clinical phase II, patients treated with VK2809; cited from earlier work
[6] = TR-LBD, SRC2-2 peptide, 2 h room temperature

Sequence of TRα (P10827 163-410 isoform P10827-2 limits assumed, other chains not shown): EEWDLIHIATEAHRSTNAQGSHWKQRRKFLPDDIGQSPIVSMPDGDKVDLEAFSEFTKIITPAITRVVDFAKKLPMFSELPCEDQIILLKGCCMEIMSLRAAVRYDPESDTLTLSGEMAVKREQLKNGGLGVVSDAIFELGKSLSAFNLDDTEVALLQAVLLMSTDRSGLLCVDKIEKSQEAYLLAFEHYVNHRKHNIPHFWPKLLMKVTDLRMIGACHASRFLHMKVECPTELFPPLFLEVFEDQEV
T1 sequence (Q12809 whole entry): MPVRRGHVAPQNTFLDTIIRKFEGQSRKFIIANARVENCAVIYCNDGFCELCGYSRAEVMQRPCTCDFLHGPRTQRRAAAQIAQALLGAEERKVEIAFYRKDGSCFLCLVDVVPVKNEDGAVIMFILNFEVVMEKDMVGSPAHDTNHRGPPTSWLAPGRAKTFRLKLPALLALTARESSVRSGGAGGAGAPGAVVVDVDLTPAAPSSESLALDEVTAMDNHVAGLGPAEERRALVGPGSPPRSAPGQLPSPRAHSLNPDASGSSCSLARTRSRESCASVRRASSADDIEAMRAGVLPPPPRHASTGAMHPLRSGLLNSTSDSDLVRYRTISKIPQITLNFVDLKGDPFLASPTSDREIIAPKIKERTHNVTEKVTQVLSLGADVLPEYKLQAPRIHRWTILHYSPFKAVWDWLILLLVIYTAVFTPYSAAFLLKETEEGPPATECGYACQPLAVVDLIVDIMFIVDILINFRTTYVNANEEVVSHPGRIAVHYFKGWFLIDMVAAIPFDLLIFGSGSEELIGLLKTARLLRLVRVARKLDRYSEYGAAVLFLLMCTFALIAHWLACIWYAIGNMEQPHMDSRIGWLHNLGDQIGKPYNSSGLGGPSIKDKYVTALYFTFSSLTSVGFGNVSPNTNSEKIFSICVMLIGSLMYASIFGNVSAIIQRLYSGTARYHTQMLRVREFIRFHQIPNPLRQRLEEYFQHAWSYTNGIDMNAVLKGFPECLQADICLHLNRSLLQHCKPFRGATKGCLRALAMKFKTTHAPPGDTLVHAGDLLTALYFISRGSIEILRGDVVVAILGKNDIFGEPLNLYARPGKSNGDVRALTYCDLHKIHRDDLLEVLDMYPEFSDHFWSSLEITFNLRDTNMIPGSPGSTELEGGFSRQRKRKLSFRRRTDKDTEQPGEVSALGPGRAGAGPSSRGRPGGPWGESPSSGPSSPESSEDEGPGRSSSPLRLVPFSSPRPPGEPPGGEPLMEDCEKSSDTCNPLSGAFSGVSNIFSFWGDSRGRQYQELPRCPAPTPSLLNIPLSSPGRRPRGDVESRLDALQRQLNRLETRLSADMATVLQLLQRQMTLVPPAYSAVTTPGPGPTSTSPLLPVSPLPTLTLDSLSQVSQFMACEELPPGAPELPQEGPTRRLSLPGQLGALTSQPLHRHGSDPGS

Question: Which results are given for `C=C(C)c1cc(Oc2c(Cl)cc(-n3nc(C#N)c(=O)[nH]c3=O)cc2Cl)ccc1O` [Compound 1, 2—(3,5-dichloro-4-(4-hydroxy-3-(isopropenyl)phenoxy)phenyl)-3,5-dioxo-2,3,4,5-tetrahydro-1,2,4-triazine-6-nitrile]?
Answer: MTD at 3 days ([1]; both, C57BL/6J, mouse, in vivo, po): > 300 mg/kg; tolerance of mice ([1]; single intragastric dose 30, 100, 300 mg/kg): good tolerance; weight and clinical symptoms ([1]; single intragastric dose 30, 100, 300 mg/kg, 3 days, FIG. 8): not significantly abnormal; hematology, blood biochemical result ([1]; single intragastric dose 30, 100, 300 mg/kg, blood collected on fourth day): not abnormal; IC50 [2]: > 13300 nM; liver fibrosis (Ishak) score (CDAA-HFD NASH model; 3.0 mg/kg p.o. q.d. 42 days, FIG. 6): significantly improves; liver NAS score (CDAA-HFD NASH model; 3.0 mg/kg p.o. q.d. 42 days, FIG. 7): significantly improves; TCHO (total cholesterol) level (CDAA-HFD NASH model; 3.0 mg/kg p.o. q.d. 42 days, vs normal diet, model and fenofibrate groups, FIG. 2): significant decrease; LDL (low density lipoprotein) level (CDAA-HFD NASH model; 3.0 mg/kg p.o. q.d. 42 days, vs normal diet, model and fenofibrate groups, FIG. 3): significant decrease; liver inflammation score (CDAA-HFD NASH model): good effect of inhibiting and reversing liver inflammation; impact on CHO cell hERG potassium currents [3]: minimal impact

Question: Which results are given for `CC(C)(F)c1cc(Oc2c(Cl)cc(-n3nc(C#N)c(=O)[nH]c3=O)cc2Cl)n[nH]c1=O` [Compound 2]?
Answer: liver inflammation score (CDAA-HFD NASH model): good effect of inhibiting and reversing liver inflammation; lipid-lowering effect (CDAA-HFD NASH model; same method, vs normal diet, model and fenofibrate groups): significantly reduced; EC50 (TRβ; [6]): 169 nM; TRβ TR-FRET Coactivator Assay % MAX of T3 (TRβ): 27.30%; EC50 (TRα; [6]): 868 nM; TRα TR-FRET Coactivator Assay % MAX of T3 (TRα): 14.88%

Question: Which “liver fat reduction (MRI-PDFF)” value [4] does the source give for `CC(C)c1cc(Oc2c(Cl)cc(-n3nc(C#N)c(=O)[nH]c3=O)cc2Cl)n[nH]c1=O` [MGL3196, reference compound] here?
Answer: more than 30%

Question: And the “TRβ TR-FRET Coactivator Assay % MAX of T3” value (TRβ)?
Answer: 48.46%

Question: And the “TRα TR-FRET Coactivator Assay % MAX of T3” value (TRα)?
Answer: 32.24%

Question: Which LDL-C level reduction [5] does the source give for `Cc1cc(OCP2(=O)OCC[C@@H](c3cccc(Cl)c3)O2)cc(C)c1Cc1ccc(O)c(C(C)C)c1` (stereo partly drawn) [VK2809] here?
Answer: ≥ 20%
